Test results taken from PubChem BioAssay (NCI).
Where “and” joins values, the source holds several entries; their conditions need not be identical. Equal values may be shown once.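 Step 1: Grow cells in 96-well plates. Step 2: Expose to compound for 48 hours at 5 concentrations. Step 3: Interpolate endpoints linearly; if unreached, use highest concentration. The concentration for 50% growth inhibition is given as GI50. TGI: concentration producing complete growth inhibition.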

Key:
Experiment in all cases: DTP human tumour cell line panel, 48 h
[1] = system: HT29 colon
[2] = system: NCI/ADR-RES ovarian
[3] = system: RPMI-8226 leukemia
[4] = system: OVCAR-3 ovarian
[5] = system: SR leukemia
[6] = system: SK-MEL-2 melanoma
[7] = system: HCT-116 colon
[8] = system: M14 melanoma
[9] = system: EKVX NSCLC
[10] = system: HCT-15 colon

SMILES	TGI [1] [µM]	TGI [2] [µM]	TGI [3] [µM]	TGI [4] [µM]	TGI [5] [µM]	TGI [6] [µM]	TGI [7]	TGI [8]	TGI [9] [µM]	TGI [10] [µM]	GI50 [2] [µM]	GI50 [4] [µM]	GI50 [5]	GI50 [6] [µM]	GI50 [10] [µM]	GI50 [1] [µM]	GI50 [8] [µM]	GI50 [3]	GI50 [7]	GI50 [9]
NC(=O)CCSC(CC(=O)c1ccc(Cl)cc1)c1ccc(Cl)cc1 (stereo not given)	> 100	52.5	5.71	40.6	22.9	69.2	70.4 µM	83.3 µM	93.7	31.5										
COC(=O)c1ccc2c(c1)sc1nc(-c3ccc(OC)cc3)cn12	> 100	> 100	> 100	> 100		> 100	> 100 µM	> 100 µM	> 100	> 100										
Cc1ccc2c3c1[C@@H]1O[C@@H]1c1cccc(c1-3)[C@@H]1O[C@H]21	23.4	90			59.3	33.7	27.7 µM	25.1 µM	32.3	36.7										
Cc1cc2c(cc1Cl)SC(c1ccccc1O)NS2(=O)=O (stereo not given)	> 100	> 100		78.4	77.3	> 100	> 100 µM	> 100 µM	> 100	> 100										
Cc1ccc(C(=O)Nc2ncn(C3CC(O)C(CO)O3)c(=O)n2)cc1 (stereo not given)	> 100	> 100	> 100	> 56.5		> 100	> 100 µM		> 100	> 100										
CC(C)(C)c1cc(-c2nc3ccc(N4CCN(CCO)CC4)cc3[nH]2)cc(C(C)(C)C)c1O		> 100		> 100	> 100	5.73				3.05	> 100	3.36	2.77 µM	2.39	1.55					
N=C(N)c1ccc(N=Nc2c(O)ccc3cc4c(N=Nc5ccc(C(=N)N)cc5)c(O)ccc4cc23)cc1	> 100	> 100	> 100	> 100	> 100	> 100	> 100 µM	> 100 µM	> 100	> 100										
CCCCCCCCCCCCSC(=S)c1c(C)[nH]n(CCCCCCCCCCCC)c1=O	> 100		> 100	> 100	> 100	> 100	> 100 µM		81.1	> 100										
N#Cc1c(-c2ccc(Cl)cc2)c2c([nH]c1=O)-c1cc([N+](=O)[O-])ccc1CCC2	75.5	55.4	> 100	31.8	> 100	43.4	31.9 µM	73.4 µM	51.2	47.6										
CCN(CCO)CCNc1ccc(C)c2sc3ccccc3c(=O)c12	6.31	11.7	20.3	23.3	> 22.4	9.33	7.76 µM	3.23 µM	26.8	10.8										
COc1ccc(N=Cc2ccc(N(CCC#N)S(=O)(=O)c3ccccc3)cc2C)cc1	> 100		> 100	> 100	> 100	67.8	> 100 µM	71.5 µM	> 100	> 100										
COc1cc(/C=C2\N=C(c3ccccc3)N(c3nc4ccc(Sc5ccccc5)cc4[nH]3)C2=O)cc(OC)c1OC	48.4	74.6	56.4	> 100		33	55.2 µM	49.7 µM	> 100	> 100										
O=c1c(-c2ccccc2)c(SCCN2CCOCC2)n(-c2ccccc2)c(=S)n1-c1ccccc1		> 100	> 100	> 100	> 100	> 100			> 100	> 100										
C=C1c2nc3ccccc3n2C=C(c2ccc(Cl)cc2)N1c1ccc(OCCN2CCCCC2)cc1	> 100	> 100	45	> 45		> 100	> 45 µM	> 100 µM	> 100	> 45	2.14		0.0439 µM	> 100		> 100	> 100			
O=C([CH-]C(=O)c1ccccc1)c1ccccc1.O=C([CH-]C(=O)c1ccccc1)c1ccccc1.O=C([CH-]C(=O)c1ccccc1)c1ccccc1.[Cl-].[Hf+4]	> 100		82.1	> 100			26.1 µM	32.9 µM	77.2	> 100		15.2			12.5	33.9	13.5	13.5 µM	7.33 µM	24.8 µM
Cn1c2cn[nH]c(=O)c2c2ccc3ccccc3c21	> 100	> 100	> 100	> 100	> 100	46.7	> 100 µM	> 100 µM	75.3	> 100										
Cc1cn(Cc2cn(CC3OC(n4cc(C)c(=O)[nH]c4=O)CC3O)nn2)c(=O)[nH]c1=O (stereo not given)		> 100	> 100	> 100		> 100	> 100 µM	> 100 µM	> 100	> 100										
COc1cc(C2C(=O)C(Cl)N2Nc2nc(C)cc(=O)[nH]2)cc(OC)c1OC (stereo not given)	66.2			45.1	77.1	25.2	49.7 µM	26.5 µM	> 100	31.9										

SMILES	TGI [1] [µM]	TGI [2] [µM]	TGI [3] [µM]	TGI [4] [µM]	TGI [5] [µM]	TGI [6] [µM]	TGI [7]	TGI [8]	TGI [9] [µM]	TGI [10] [µM]	GI50 [2] [µM]	GI50 [4] [µM]	GI50 [5]	GI50 [6] [µM]	GI50 [10] [µM]	GI50 [1] [µM]	GI50 [8] [µM]	GI50 [3]	GI50 [7]	GI50 [9]
CCCCCCCCCCCCCCCCCC(=O)OCC1OC(OC)C(NC(=O)N(CCCl)N=O)C(O)C1O (stereo not given)	63.6		85.8	65.6	> 100	> 100		> 100 µM		> 100										
COc1cccc(NC(=O)CC(=O)NN2C(=O)/C(=C/c3ccc(N(CCC#N)CCC#N)cc3)N=C2c2cc([N+](=O)[O-])ccc2Cl)c1			> 100	> 100	> 100	> 100	> 100 µM	> 100 µM	> 100	> 100										
O=C1CS(=O)(=O)C(c2cccc(Oc3ccccc3)c2)N1C1CC1 (stereo not given)	> 100	> 100		> 100	> 100	> 100	> 100 µM	> 100 µM	> 100	> 100										
O=S(=O)(O)c1ccc2c(N=Nc3ccccc3)c(O)ccc2c1	> 100	> 100	> 100	> 100	> 100	> 100	> 100 µM	> 100 µM	> 100	> 100										
C/C(=C\C(=N\NC(=N)N)c1ccccc1)c1ccccc1	3.44	10.1	8.41	1.03	6.59		1.1 µM	2.47 µM		14.7										
Cn1c(=O)ccc2c(=O)c3ccccc3oc21	> 100	> 100		> 100	> 100	> 100	> 100 µM	> 100 µM	> 100	> 100										
Cc1cc(=O)n2c3c(c4c(cc13)c(CN(C)C)cc(=O)n4C)OC2	> 45.9	> 76.9	> 100	80.1	> 100	41.6	> 69.5 µM	31.2 µM	> 58.2	> 56.7										
C=C1CC2C3C=C(C)C4=CC(=O)CC[C@]4(C)C3CC[C@]2(C)[C@@]1(OC(C)=O)C(C)=O (stereo not given in full)		> 100	5.6		> 100	> 100	> 100 µM		> 100		2.43		3.19 µM	> 100				1.25 µM	3.38 µM	2.1 µM
COP(=O)(OC)[C@H](O)[C@H]1C[C@@H]1c1ccccc1	> 100	> 100	> 100	> 100		> 100		> 100 µM	> 100	> 100										
CCCC[C@H]1C(=O)O[C@H](C)[C@H](NC(=O)c2cccc(NC=O)c2OC)C(=O)O[C@@H](C)[C@@H]1OC(=O)CC(C)C (tested in a mixture with another compound)	33.1	61.1	28.2	27.7	50.5	29	28.4 µM	46.6 µM	31.3	51.2										
O=CN1CCC23CC(O)CCC2C1Cc1cc(Oc2nnnn2-c2ccccc2)cc(O)c13 (stereo not given)	> 100	> 100	> 100	> 100	> 100	> 100	> 100 µM	> 100 µM	> 100	> 100										
CN1NC(c2ccccc2)=C(C#N)C(=O)CC1c1ccc(F)cc1 (stereo not given)	> 100		> 100		> 100	> 100	> 100 µM			> 100										
O=c1[nH]c2cc([N+](=O)[O-])c(N/N=C/c3ccc(Cl)cc3Cl)c([N+](=O)[O-])c2[nH]1	> 100	> 100	> 100	35.3		> 100	> 100 µM	> 100 µM	> 100	> 100										
COc1ccc(N=Nc2c(N)nn(C)c2N)cc1	> 100		> 100	> 100	> 100	> 100	> 100 µM	> 100 µM	> 100	> 100										
CCOC(=O)C12CC(C)=C(C)CC1CCCc1ccccc12 (stereo not given)	36.5	> 100	34.2	42.6	84.4	31.6	34.3 µM	> 100 µM	49.5	59.8										
O=c1[nH]c(=O)n(CCOCP(=O)(O)O)nc1Br	> 100	> 100	> 100	> 100	> 100	> 100		> 100 µM	> 100	> 100										
Cn1cc(-c2nnc(-c3ccc(Cl)cc3)[nH]c2=O)c2ccccc21	> 24.6	8.03	44.7	14.9	> 100	> 37.3	> 66.3 µM	> 100 µM	> 64.9	> 100										
C[C@H]1CCC/C=C/[C@@H]2C[C@H](O)C[C@H]2[C@H](O)/C=C/C(=O)O1							0.0478 µM and 0.0573 µM and 0.152 µM	6.57 µM and 0.738 µM			0.0476	0.0382	< 0.0146 µM and 0.0808 µM and 0.0415 µM		0.104	0.0224		0.0345 µM and 0.0737 µM and 0.11 µM	0.0115 µM and 0.056 µM	< 0.0164 µM and 0.0544 µM and 0.0447 µM
